# Test results from PubChem BioAssay (NCI).
#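 Growth conditions: 96-well plates. Treatment: test compound, 48 hours, 5 concentrations. Analysis: linear interpolation between bracketing concentrations; unreached endpoints set to highest concentration. TGI: total growth inhibition.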
# Columns and labels:
# Test in all cases: NCI anticancer screen, dose series, 48 h
# NCI-H226 lung = test system: NCI-H226 lung
# DMS 114 small cell lung = test system: DMS 114 small cell lung
# HOP-18 NSCLC = test system: HOP-18 NSCLC
# SK-MEL-28 melanoma = test system: SK-MEL-28 melanoma
# SNB-75 CNS = test system: SNB-75 CNS
# RXF 393 renal = test system: RXF 393 renal
# NCI-H522 lung = test system: NCI-H522 lung
# SF-268 CNS = test system: SF-268 CNS
# IGROV1 ovarian = test system: IGROV1 ovarian
# DLD-1 colon = test system: DLD-1 colon
# SF-295 CNS = test system: SF-295 CNS
# CCRF-CEM leukemia = test system: CCRF-CEM leukemia
# HT29 colon = test system: HT29 colon
# MOLT-4 leukemia = test system: MOLT-4 leukemia
# M19-MEL melanoma = test system: M19-MEL melanoma
# UACC-257 melanoma = test system: UACC-257 melanoma
# HCT-15 colon = test system: HCT-15 colon
# MALME-3M melanoma = test system: MALME-3M melanoma
# U251 CNS = test system: U251 CNS
# DMS 273 small cell lung = test system: DMS 273 small cell lung
# OVCAR-4 ovarian = test system: OVCAR-4 ovarian
# OVCAR-3 ovarian = test system: OVCAR-3 ovarian
# NCI-H460 lung = test system: NCI-H460 lung
# M14 melanoma = test system: M14 melanoma
# K-562 leukemia = test system: K-562 leukemia
# OVCAR-8 ovarian = test system: OVCAR-8 ovarian
# ACHN renal = test system: ACHN renal
# A549 NSCLC = test system: A549 NSCLC
# UO-31 renal = test system: UO-31 renal
# HL-60(TB) leukemia = test system: HL-60(TB) leukemia
# UACC-62 melanoma = test system: UACC-62 melanoma
# SNB-19 CNS = test system: SNB-19 CNS
# SN12C renal = test system: SN12C renal
# SK-MEL-2 melanoma = test system: SK-MEL-2 melanoma
# LOX IMVI melanoma = test system: LOX IMVI melanoma
# SF-539 CNS = test system: SF-539 CNS
# 786-0 renal = test system: 786-0 renal
# SK-MEL-5 melanoma = test system: SK-MEL-5 melanoma
# LXFL 529 NSCLC = test system: LXFL 529 NSCLC
# SK-OV-3 ovarian = test system: SK-OV-3 ovarian
# SNB-78 CNS = test system: SNB-78 CNS
# HCT-116 colon = test system: HCT-116 colon
# TK-10 renal = test system: TK-10 renal
# KM12 colon = test system: KM12 colon
# XF 498 CNS = test system: XF 498 CNS
# NCI-H23 lung = test system: NCI-H23 lung
# KM20L2 colon = test system: KM20L2 colon
# SW-620 colon = test system: SW-620 colon
# COLO 205 colon = test system: COLO 205 colon
# HCC-2998 colon = test system: HCC-2998 colon
# SR leukemia = test system: SR leukemia
# RPMI-8226 leukemia = test system: RPMI-8226 leukemia
# CAKI-1 renal = test system: CAKI-1 renal
# HOP-62 NSCLC = test system: HOP-62 NSCLC
# OVCAR-5 ovarian = test system: OVCAR-5 ovarian
# A498 renal = test system: A498 renal
# HOP-92 NSCLC = test system: HOP-92 NSCLC
# EKVX NSCLC = test system: EKVX NSCLC
structure (smiles),measurement,setting,value
O=C(NN1C(=O)C(Cl)C1c1ccc(O)cc1)c1ccccc1O (stereo not drawn),TGI,NCI-H226 lung,30.7 µM
same,TGI,DMS 114 small cell lung,29.6 µM
same,TGI,HOP-18 NSCLC,30.4 µM
same,TGI,SK-MEL-28 melanoma,36.5 µM
same,TGI,SNB-75 CNS,> 100 µM
same,TGI,RXF 393 renal,27 µM
same,TGI,NCI-H522 lung,34.5 µM
same,TGI,SF-268 CNS,41.2 µM
same,TGI,IGROV1 ovarian,27.5 µM
same,TGI,DLD-1 colon,30.6 µM
same,TGI,SF-295 CNS,33.9 µM
same,TGI,CCRF-CEM leukemia,> 100 µM
same,TGI,HT29 colon,36.1 µM
same,TGI,MOLT-4 leukemia,> 100 µM
same,TGI,M19-MEL melanoma,40.6 µM
same,TGI,UACC-257 melanoma,55.9 µM
same,TGI,HCT-15 colon,30.6 µM
same,TGI,MALME-3M melanoma,34.5 µM
same,TGI,U251 CNS,27.3 µM
same,TGI,DMS 273 small cell lung,25.5 µM
same,TGI,OVCAR-4 ovarian,40.4 µM
same,TGI,OVCAR-3 ovarian,31.7 µM
same,TGI,NCI-H460 lung,35.7 µM
same,TGI,M14 melanoma,38.4 µM
same,TGI,K-562 leukemia,> 100 µM
same,TGI,OVCAR-8 ovarian,30.8 µM
same,TGI,ACHN renal,34.5 µM
same,TGI,A549 NSCLC,50 µM
same,TGI,UO-31 renal,29 µM
same,TGI,HL-60(TB) leukemia,> 100 µM
same,TGI,UACC-62 melanoma,32.3 µM
same,TGI,SNB-19 CNS,43.7 µM
same,TGI,SN12C renal,43.7 µM
same,TGI,SK-MEL-2 melanoma,48.3 µM
same,TGI,LOX IMVI melanoma,31.7 µM
same,TGI,SF-539 CNS,38.5 µM
same,TGI,786-0 renal,33.5 µM
same,TGI,SK-MEL-5 melanoma,27.7 µM
same,TGI,LXFL 529 NSCLC,33.3 µM
same,TGI,SK-OV-3 ovarian,59.5 µM
same,TGI,SNB-78 CNS,65.4 µM
same,TGI,HCT-116 colon,28.5 µM
same,TGI,TK-10 renal,70.6 µM
same,TGI,KM12 colon,29.5 µM
same,TGI,XF 498 CNS,23.7 µM
same,TGI,NCI-H23 lung,41.8 µM
CCCCCCCCCCCCCC(=O)OC1C(O)C(CO)OC(OC)C1NC(=O)N(CCCl)N=O (stereo not drawn),TGI,NCI-H226 lung,> 100 µM
same,TGI,HOP-18 NSCLC,> 100 µM
same,TGI,SK-MEL-28 melanoma,> 100 µM
same,TGI,KM20L2 colon,> 100 µM
same,TGI,SNB-75 CNS,> 100 µM
same,TGI,RXF 393 renal,> 100 µM
same,TGI,NCI-H522 lung,> 100 µM
same,TGI,SF-268 CNS,> 100 µM
same,TGI,SW-620 colon,> 100 µM
same,TGI,COLO 205 colon,> 100 µM
same,TGI,HCC-2998 colon,> 100 µM
same,TGI,IGROV1 ovarian,> 100 µM
same,TGI,DLD-1 colon,> 100 µM
same,TGI,SF-295 CNS,> 100 µM
same,TGI,SR leukemia,93.4 µM
same,TGI,HT29 colon,> 100 µM
same,TGI,MOLT-4 leukemia,59.8 µM
same,TGI,M19-MEL melanoma,> 100 µM
same,TGI,UACC-257 melanoma,86.8 µM
same,TGI,HCT-15 colon,> 100 µM
same,TGI,MALME-3M melanoma,> 100 µM
same,TGI,U251 CNS,> 100 µM
same,TGI,RPMI-8226 leukemia,> 100 µM
same,TGI,DMS 273 small cell lung,> 100 µM
same,TGI,OVCAR-4 ovarian,> 100 µM
same,TGI,OVCAR-3 ovarian,> 100 µM
same,TGI,NCI-H460 lung,> 100 µM
same,TGI,M14 melanoma,> 100 µM
same,TGI,K-562 leukemia,> 100 µM
same,TGI,OVCAR-8 ovarian,> 100 µM
same,TGI,ACHN renal,> 100 µM
same,TGI,A549 NSCLC,> 100 µM
same,TGI,UO-31 renal,> 100 µM
same,TGI,UACC-62 melanoma,> 100 µM
same,TGI,CAKI-1 renal,> 100 µM
same,TGI,SNB-19 CNS,> 100 µM
same,TGI,SN12C renal,> 100 µM
same,TGI,SK-MEL-2 melanoma,> 100 µM
same,TGI,LOX IMVI melanoma,89.9 µM
same,TGI,SF-539 CNS,63.5 µM
same,TGI,HOP-62 NSCLC,> 100 µM
same,TGI,SK-MEL-5 melanoma,> 100 µM
same,TGI,LXFL 529 NSCLC,> 100 µM
same,TGI,OVCAR-5 ovarian,> 100 µM
same,TGI,TK-10 renal,> 100 µM
same,TGI,KM12 colon,> 100 µM
same,TGI,XF 498 CNS,> 100 µM
same,TGI,NCI-H23 lung,> 100 µM
O=[N+]([O-])c1ccc(C2=Nn3c(nnc3-c3ccccc3)SC2)o1,TGI,NCI-H226 lung,> 100 µM
same,TGI,DMS 114 small cell lung,38.8 µM
same,TGI,HOP-18 NSCLC,34.8 µM
same,TGI,SK-MEL-28 melanoma,> 100 µM
same,TGI,KM20L2 colon,53.5 µM
same,TGI,SNB-75 CNS,38.9 µM
same,TGI,RXF 393 renal,53.5 µM
same,TGI,SF-268 CNS,42.8 µM
same,TGI,SW-620 colon,40.5 µM
same,TGI,COLO 205 colon,49.9 µM
same,TGI,HCC-2998 colon,35.7 µM
same,TGI,IGROV1 ovarian,47.6 µM
same,TGI,DLD-1 colon,30.2 µM
same,TGI,SF-295 CNS,31.8 µM
same,TGI,CCRF-CEM leukemia,20.2 µM
same,TGI,HT29 colon,52.8 µM
same,TGI,MOLT-4 leukemia,70.8 µM
same,TGI,A498 renal,> 100 µM
same,TGI,M19-MEL melanoma,41.1 µM
same,TGI,UACC-257 melanoma,36.5 µM
same,TGI,HCT-15 colon,38.2 µM
same,TGI,MALME-3M melanoma,47.5 µM
same,TGI,U251 CNS,33.7 µM
same,TGI,RPMI-8226 leukemia,> 100 µM
same,TGI,DMS 273 small cell lung,48.7 µM
same,TGI,OVCAR-4 ovarian,41.5 µM
same,TGI,OVCAR-3 ovarian,31.8 µM
same,TGI,NCI-H460 lung,41.6 µM
same,TGI,M14 melanoma,32 µM
same,TGI,K-562 leukemia,> 100 µM
same,TGI,OVCAR-8 ovarian,45.9 µM
same,TGI,ACHN renal,33.8 µM
same,TGI,A549 NSCLC,> 100 µM
same,TGI,HL-60(TB) leukemia,37.8 µM
same,TGI,UACC-62 melanoma,36.3 µM
same,TGI,CAKI-1 renal,35 µM
same,TGI,HOP-92 NSCLC,34.1 µM
same,TGI,SNB-19 CNS,> 100 µM
same,TGI,SN12C renal,32.4 µM
same,TGI,EKVX NSCLC,> 100 µM
same,TGI,SK-MEL-2 melanoma,49 µM
same,TGI,SF-539 CNS,39 µM
same,TGI,786-0 renal,40.7 µM
same,TGI,HOP-62 NSCLC,> 100 µM
same,TGI,SK-MEL-5 melanoma,32.6 µM
same,TGI,LXFL 529 NSCLC,29.9 µM
same,TGI,SK-OV-3 ovarian,> 100 µM
same,TGI,SNB-78 CNS,44.7 µM
same,TGI,OVCAR-5 ovarian,65.8 µM
same,TGI,HCT-116 colon,35.6 µM
same,TGI,TK-10 renal,34.5 µM
same,TGI,KM12 colon,42.4 µM
same,TGI,XF 498 CNS,38.9 µM
same,TGI,NCI-H23 lung,42.8 µM
